The record followed here is patent EP1038880B1, “Androstanes and pregnanes for allosteric modulation of GABA receptor” (priority 1994, dated 1995).

The target of assay [1] is GR complex. As to the kind of experiment: [35S]TBPS binding assay (inhibition of [35S]TBPS binding, cerebral cortex P2 homogenate). Particulars: for IC50: 2 nM [35S]TBPS, rat cerebral cortex P2 homogenate; for IMAX: maximum inhibition of [35S]TBPS binding. Set-up: species or system rat. How it is done:
We performed several experiments to determine the nature of the modulation of [^35S]TBPS as affected by the compounds of the invention.
These procedures were performed as follows:
Brains from male Sprague-Dawley rats were removed immediately following sacrifice and the cerebral cortices dissected over ice. […] Briefly, the cortices were gently homogenized in 0.32 M sucrose followed by centrifugation at 1000 x g for 10 minutes. The supernatant was collected and centrifuged at 9000 x g for 20 minutes. The resultant P2 pellet was suspended as a 10% (original wet weight/volume) suspension in 50 mM Na/K phosphate buffer (pH 7.4) 200 mM NaCl to form the homogenate.
One hundred microliter […] aliquots of the P2 homogenate (0.5 milligrams (mg) protein) were incubated with 2 nanomolar (nM) [^35S]TBPS (70-110 curies/millimole; New England Nuclear, Boston, MA) in the presence or absence of the naturally occurring steroids or their synthetic derivatives to be tested. The tested compounds were dissolved in dimethylsulfoxide (Baker Chem. Co., Phillipsbury, NJ) and added to the incubation mixture in 5 µL aliquots. The incubation mixture was brought to a final volume of 1 mL with buffer. Non-specific binding was defined as binding in the presence of […] TBPS. The effect and specificity of GABA (Sigma Chem. Co., St. Louis, MO) was evaluated by performing all assays in the presence of GABA plus (+)bicuculline (Sigma Chem. Co.). maintained at 25°C for 90 minutes (steady state conditions) were terminated by rapid filtration through glass fiber filters (No. 32, Schleicher and Schuell, Keene, NH). Filter-bound radioactivity was quantitated by liquid scintillation spectrophotometry.
Various compounds were screened to determine their potential as modulators of [^35S]TBPS binding in vitro. These assays were performed in accordance with the above discussed procedures. […] It is an indication of a compound's in vitro potency. Maximum inhibition is an indication of a compound's in vitro efficacy.

For assay [2], the system named is metrazol induced convulsions. The assay is described as follows: animal or person. In kind it is in vivo, mice. How it is done: Experiments were also performed to determine the physiological relevance of neuroactive steroid and GABA receptor interactions by assessing the ability of the compounds of and used in the invention to prevent metrazol induced convulsions in mice. Mice were injected with various doses of the test compounds of the invention, 10 minutes prior to the injection of metrazol. The time to onset of myoclomis (presence of forelimb clonic activity) induced by metrazol was determined by observing each mouse for a period of 30 minutes. […] Table 6: Antimetrazol Activity of Neuroactive Steroids in Mice
The anticonvulsant tests are similar to that described above. […] The number of animals with tonic and/or clonic convulsions was recorded. In the maximal electroshock test, 50 mA of current at 60 Hz was delivered through corneal electrodes for 200 msec to induce tonic seizure. The ability of compounds to abolish the tonic component was defined as the endpoint. General CNS depression potential was determined by a rotorod test 10 minutes after the injection of compounds where the number of mice staying on a rotating (6 rpm) rod for 1 minute in one of the three trials was determined. […] Table 7. Anticonvulsant Activity of Exemplified Neuroactive Steroids and those of Selected Clinically Useful Anticonvulsants in Mice

The IC50 is the concentration that gives 50% inhibition. In assay [1], `CCOC(=O)c1ccc(C#CC2(O)CCC3(C)C(CCC4C3CCC3(C)C(C(C)=O)CCC43)C2)cc1` (stereo not drawn) [3β-(4'-Carboxyphenylethynyl)-3α-hydroxy-5α-pregnan-20-one ethyl ester] came in with an IC50 of 0.007 µM and an IMAX of 79%.
As for `CCOC(=O)c1ccc(C#CC2(O)CCC3C(CCC4C3CCC3(C)C(C(C)=O)CCC43)C2)cc1` (stereo not drawn) [3β-(4'-Carboxyphenylethynyl)-3α-hydroxy-19-nor-5β-pregnan-20-one ethyl ester], in assay [1], the 50% inhibitory concentration (IC50) was 0.015 µM and the IMAX is 94%.
Consider `CC(=O)[C@H]1CC[C@H]2[C@@H]3CC[C@@H]4C[C@@](O)(C#CCCO)CC[C@]4(C)[C@H]3C(=O)C[C@]12C` [3β-(4'-Hydroxy-1'-butynyl)-3α-hydroxy-5β-pregnan-11,20-dione], for which, in assay [1], the half-inhibitory concentration (IC50) stood at 0.268 µM and the IMAX is 102%.
Regarding `CC(=O)C1CCC2C3CCC4CC(O)(C#Cc5ccc(O)cc5)CCC4(C)C3CCC12C` (stereo not drawn) [3β-(4'-Hydroxyphenylethynyl)-3α-hydroxy-5β-pregnan-20-one], in assay [1], the IC50 turned out to be 1.55 µM and the IMAX is 88%.
For `CC(=O)[C@H]1CC[C@H]2[C@@H]3CC[C@@H]4C[C@@](O)(C#Cc5ccc([N+](=O)[O-])cc5)CC[C@]4(C)[C@H]3CC[C@]12C` [3β-(4'-Nitrophenylethynyl)-3α-hydroxy-5β-pregnan-20-one], in that order: 0.046 µM and 103%.
In assay [1], `CC(=O)[C@H]1CC[C@H]2[C@@H]3CC[C@@H]4C[C@@](O)(C#Cc5ccc(Cl)cc5)CC[C@]4(C)[C@H]3CC[C@]12C` [3β-(4'-chlorophenylethynyl)-3α-hydroxy-5β-pregnan-20-one] returned an IC50 of 0.058 µM and an IMAX of 89%.
In assay [1], `CC(=O)[C@H]1CC[C@H]2[C@@H]3CC[C@@H]4C[C@@](O)(C#Cc5ccc(N(C)C)cc5)CC[C@]4(C)[C@H]3CC[C@]12C` [3β-(4'-dimethylaminophenyl)ethynyl-3α-hydroxy-5β-pregnan-20-one] gave a half-inhibitory concentration (IC50) of 0.028 µM and an IMAX of 77%.
In assay [1], `CC(=O)C1CCC2C3CCC4CC(O)(C#CCCO)CCC4C3CCC12C` (stereo not drawn) [3β-(4'-hydroxy-1'-butynyl)-3α-hydroxy-5β-19-norpregnan-20-one] registered an IC50 of 0.022 µM and an IMAX of 102%.
In the case of `CC(=O)[C@H]1CC[C@H]2[C@@H]3CC[C@@H]4C[C@@](O)(C#CCCO)CC[C@]4(C)[C@H]3CC[C@]12C` [3β-(4'-hydroxy-1'-butynyl)-3α-hydroxy-5β-pregnan-20-one], in assay [1], the IC50 was 0.013 µM and the IMAX was 103%.
Take `CC(=O)C1CCC2C3CCC4CC(O)(C#CCCO)CCC4(C)C3CCC12C` (stereo not drawn) [3β-(4'-hydroxybutynyl)-3α-hydroxy-5α-pregnan-20-one]: the IMAX in assay [1] was found to be 95%.
For the compound `COc1ccc(C#CC2(O)CCC3(C)C(CCC4C3CCC3(C)C(C(C)=O)CCC43)C2)cc1` (stereo not drawn) [3β-(4'-methoxyphenylethynyl)-3α-hydroxy-5β-pregnan-20-one], in assay [1], the concentration for half-maximal inhibition (IC50) was found to be 0.047 µM and the IMAX is listed as 89%.
In assay [1], `CC(=O)[C@H]1CC[C@H]2[C@@H]3CC[C@@H]4C[C@@](O)(C#CCCC#N)CC[C@]4(C)[C@H]3CC[C@]12C` [3β-(4-cyano-1-butynyl)-3α-hydroxy-5β-pregnan-20-one] gave a 50% inhibitory concentration (IC50) of 0.131 µM and an IMAX of 86%.
On the same counts, the results for `CC(=O)[C@H]1CC[C@H]2[C@@H]3CC[C@@H]4C[C@@](O)(C#CCCCC(N)=O)CC[C@]4(C)[C@H]3CC[C@]12C` [3β-(5'-Carboxamidopentynyl)-3α-hydroxy-5β-pregnan-20-one] are 3.09 µM and 102%.
On the same counts, the results for `CC(=O)OCCCCC#C[C@@]1(O)CC[C@@]2(C)[C@H](CC[C@@H]3[C@@H]2CC[C@]2(C)[C@@H](C(C)=O)CC[C@@H]32)C1` [3β-(6'Acetoxy-1'-hexynyl)-3α-hydroxy-5β-pregnan-20-one] are 0.306 µM and 99%.
For `CC(=O)[C@H]1CC[C@H]2[C@@H]3CC[C@@H]4C[C@@](O)(C#CCCCCO)CC[C@]4(C)[C@H]3CC[C@]12C` [3β-(6-hydroxy-1-hexynyl)-3α-hydroxy-5β-pregnan-20-one], in that order: 0.222 µM and 99%.
On to `CC(=O)[C@H]1CC[C@H]2[C@@H]3CC[C@@H]4C[C@@](O)(C#Cc5c(F)c(F)c(F)c(F)c5F)CC[C@]4(C)[C@H]3CC[C@]12C` [3β-(pentafluorophenylethynyl)-3α-hydroxy-5β-pregnan-20-one], for which, in assay [1], the IC50 is 0.079 µM and the IMAX turned out to be 69%.
For `CC(=O)[C@H]1CC[C@H]2[C@@H]3CC[C@@H]4C[C@@](O)(Cc5ccccc5)CC[C@]4(C)[C@H]3CC[C@]12C` [3β-Benzyl-3α-hydroxy-5β-pregnan-20-one, 3α-hydroxy-3β-benzyl-5β-pregnan-20-one], in that order: 0.109 µM and 102%.
In assay [1], `CC(=O)[C@H]1CC[C@H]2[C@@H]3CC[C@H]4C[C@@H](O)CC[C@]4(C)[C@H]3CC[C@]12C` [3β-Hydroxy-5α-pregnan-20-one, reference compound] came in with an IC50 greater than 1000 µM and an IMAX of 33%.
On the same counts, the results for `CC(=O)[C@H]1CC[C@H]2[C@@H]3CC[C@@H]4C[C@@](O)(C#CCN(C)C)CC[C@]4(C)[C@H]3CC[C@]12C` [3β-[3'-(N,N-dimethylamino)-1'-propynyl]-3α-hydroxy-5β-pregnan-20-one] are 1.42 µM and 100%.
In assay [1], `CCN(CC)C(=O)c1ccc(C#CC2(O)CCC3(C)C(CCC4C3CCC3(C)C(C(C)=O)CCC43)C2)cc1` (stereo not drawn) [3β-[4'-(N,N-diethylcarboxamido)phenyl]ethynyl-3α-hydroxy-5β-pregnan-20-one] returned an IC50 of 0.087 µM and an IMAX of 94%.
As to `C#C[C@@]1(O)CC[C@@]2(C)[C@H](CC[C@@H]3[C@@H]2CC[C@]2(C)[C@@H](C(=O)Cn4cncn4)CC[C@@H]32)C1` [3β-ethynyl-3α-hydroxy-21-(1',2',4'-triazoyl)-5β-pregnan-20-one], in assay [1], the half-maximal inhibitory concentration (IC50) came out at 0.127 µM and the IMAX came out at 98%.
`CC(=O)C1CCC2C3CCC4CC(OC(=O)c5ccc(Cl)cc5)CCC4(C)C3CCC12C` (stereo not shown) [4-Chlorophenyl]: in assay [2] (60 mg/kg, 1hr, IP), the “% Protection” value is 50%.
The same measure, in the same setting: next, `COc1ccc(C(=O)OC2CCC3(C)C(CCC4C3CCC3(C)C(C(C)=O)CCC43)C2)cc1` (stereo not shown) [4-Methoxyphenyl]: 17%.
With `C[C@]12C[C@H](O)[C@H]3[C@@H](CCC4=CC(=O)CC[C@@]43C)[C@@H]1CC[C@@H]2C(=O)CO` [4-Pregnen-11β,21-diol-3,20-dione, reference compound], in assay [1], the half-inhibitory concentration (IC50) is greater than 1000 µM and the IMAX came to 30%.
As to `C[C@]12CC[C@@H]3c4ccc(O)cc4CC[C@H]3[C@@H]1CC[C@@H]2O` [17β-Estradiol, reference compound], the IMAX in assay [1] was found to be 0%.
In assay [1], `C[C@@]1(O)CC[C@@]2(C)[C@@H](CC[C@@H]3[C@@H]2CC[C@]2(C)[C@@H](C(=O)Cn4cnc5ccccc54)CC[C@@H]32)C1` [21-(1' benzimidazolyl)-3α-hydroxy-3β-methyl-5α-pregnan-20-one] registered an IC50 of 0.109 µM and an IMAX of 95%.
Consider `CCCCC(=O)OC1CCC2(C)C(CCC3C2CCC2(C)C(C(C)=O)CCC32)C1` (stereo not shown) [Butyl], for which the “% Protection” value in assay [2] (mouse, in vivo) is 33%.
As for `CC(C)CCC[C@@H](C)[C@H]1CC[C@H]2[C@@H]3CC=C4C[C@@H](O)CC[C@]4(C)[C@H]3CC[C@]12C` [Cholesterol, reference compound], in assay [1], the IMAX was 0%.
In the case of `CCC(=O)OC1CCC2(C)C(CCC3C2CCC2(C)C(C(C)=O)CCC32)C1` (stereo not shown) [Ethyl], the “% Protection” value in assay [2] (60 mg/kg, 1hr, IP) is 75%.
On to `CC(=O)[C@H]1CC[C@H]2[C@@H]3CCC4=CC(=O)CC[C@]4(C)[C@H]3CC[C@]12C` [Progesterone, reference compound], for which, in assay [1], the IC50 stood at 5.2 µM and the IMAX amounted to 100%.
In assay [1], `C[C@]12CC[C@@H](O)C[C@@H]1CC[C@@H]1[C@@H]2CC[C@]2(C)[C@@H](C(=O)CSS(=O)(=O)[O-])CC[C@@H]12.[Na+]` [Sodium S-(3α-hydroxy-5α-pregnan-20-on-21-yl) thiosulfate] registered an IC50 of 0.133 µM and an IMAX of 90%.
